Measurements as given in ChEMBL document CHEMBL2069178, “A combined targeted/phenotypic approach for the identification of new antiangiogenics agents active on a zebrafish model: from in silico screening to cyclodextrin formulation” (Bioorg Med Chem Lett, 2012).
Each block holds one compound with its values, some of them ahead of it. Activity calls are given as the source filed them. The calls are words filed in the database; no cut-off is given here.

Key:
HUVEC [1] = experiment: Antiangiogenic activity in HUVEC co-cultured with vascular smooth muscle cells assessed as inhibition of network formation at 1.8 to 15 uM after 72 hrs; assay type: functional, cell-based; conditions: Homo sapiens
HUVEC [2] = experiment: Antiangiogenic activity in HUVEC co-cultured with vascular smooth muscle cells assessed as inhibition of network formation at […] after 72 hrs; assay type: functional, cell-based; conditions: Homo sapiens
HUVEC [3] = experiment: Antiangiogenic activity in HUVEC co-cultured with vascular smooth muscle cells assessed as inhibition of cell growth at […] after 72 hrs; assay type: functional, cell-based; conditions: Homo sapiens
[4] = target: Tyrosine-protein kinase ABL1 (Homo sapiens, UniProt P00519); experiment: Inhibition of Abl
[5] = target: Proto-oncogene tyrosine-protein kinase Src (Homo sapiens) (UniProt P12931); experiment: Inhibition of c-Src at 100 uM
Chain of Proto-oncogene tyrosine-protein kinase Src (Homo sapiens) (P12931 2-536 limits assumed): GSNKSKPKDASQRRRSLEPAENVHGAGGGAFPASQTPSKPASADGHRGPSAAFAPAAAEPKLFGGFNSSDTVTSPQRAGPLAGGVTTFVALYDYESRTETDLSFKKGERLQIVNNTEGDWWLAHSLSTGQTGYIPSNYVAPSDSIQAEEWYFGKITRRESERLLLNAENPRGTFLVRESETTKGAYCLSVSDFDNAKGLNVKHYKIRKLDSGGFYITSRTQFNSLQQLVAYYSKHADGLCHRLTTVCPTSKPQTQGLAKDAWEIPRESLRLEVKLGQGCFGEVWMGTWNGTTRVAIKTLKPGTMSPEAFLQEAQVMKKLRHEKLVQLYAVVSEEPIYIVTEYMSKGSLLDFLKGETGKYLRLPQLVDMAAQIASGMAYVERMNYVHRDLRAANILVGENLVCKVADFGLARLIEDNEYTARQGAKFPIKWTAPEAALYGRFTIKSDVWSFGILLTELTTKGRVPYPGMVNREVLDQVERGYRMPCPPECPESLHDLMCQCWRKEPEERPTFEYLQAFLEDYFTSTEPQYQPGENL

HUVEC [6] = experiment: Antiangiogenic activity in HUVEC co-cultured with vascular smooth muscle cells assessed as inhibition of network formation at 1.8 after 72 hrs; assay type: functional, cell-based; conditions: Homo sapiens
HUVEC [7] = experiment: Antiangiogenic activity in HUVEC co-cultured with vascular smooth muscle cells assessed as inhibition of network formation at 10 to 15 uM after 72 hrs; assay type: functional, cell-based; conditions: Homo sapiens
Danio rerio = species on record: Danio rerio; experiment: Toxicity in embryos of zebrafish assessed as induction of growth malformation at 0.5 to 2 uM treated 16 hrs post fertilization measured after 24 hrs; assay type: organism-based; conditions: in vivo
HUVEC [8] = experiment: Cytotoxicity against HUVEC co-cultured with vascular smooth muscle cells assessed as rounded-up, unconnected and unicellular morphology phenotype; assay type: cell-based; conditions: human
[9] = Permeability of the compound assessed as membrane retention by PAMPA; assay type: ADME
Liver microsomes = experiment: Metabolic stability of the compound in human liver microsomes assessed as compound remaining; assay type: ADME, Microsome
HUVEC [10] = experiment: Antiangiogenic activity in HUVEC co-cultured with vascular smooth muscle cells assessed as inhibition of network formation at 1.8 to 16 uM after 72 hrs; assay type: functional, cell-based; conditions: Homo sapiens
[11] = Apparent permeability of the compound assessed as membrane permeation by PAMPA; assay type: ADME
HUVEC [12] = experiment: Cytotoxicity against HUVEC co-cultured with vascular smooth muscle cells assessed as cell death at 16 uM; assay type: cell-based; conditions: human
Homo sapiens [13] = species on record: Homo sapiens; experiment: Inhibition of PKB at 10 uM
Homo sapiens [14] = species on record: Homo sapiens; experiment: Inhibition of PKA at 10 uM
[15] = target: Tyrosine-protein kinase JAK2 (Homo sapiens) (UniProt O60674); experiment: Inhibition of Jak2 at 10 uM
Chain of Tyrosine-protein kinase JAK2 (Homo sapiens) (O60674 whole entry): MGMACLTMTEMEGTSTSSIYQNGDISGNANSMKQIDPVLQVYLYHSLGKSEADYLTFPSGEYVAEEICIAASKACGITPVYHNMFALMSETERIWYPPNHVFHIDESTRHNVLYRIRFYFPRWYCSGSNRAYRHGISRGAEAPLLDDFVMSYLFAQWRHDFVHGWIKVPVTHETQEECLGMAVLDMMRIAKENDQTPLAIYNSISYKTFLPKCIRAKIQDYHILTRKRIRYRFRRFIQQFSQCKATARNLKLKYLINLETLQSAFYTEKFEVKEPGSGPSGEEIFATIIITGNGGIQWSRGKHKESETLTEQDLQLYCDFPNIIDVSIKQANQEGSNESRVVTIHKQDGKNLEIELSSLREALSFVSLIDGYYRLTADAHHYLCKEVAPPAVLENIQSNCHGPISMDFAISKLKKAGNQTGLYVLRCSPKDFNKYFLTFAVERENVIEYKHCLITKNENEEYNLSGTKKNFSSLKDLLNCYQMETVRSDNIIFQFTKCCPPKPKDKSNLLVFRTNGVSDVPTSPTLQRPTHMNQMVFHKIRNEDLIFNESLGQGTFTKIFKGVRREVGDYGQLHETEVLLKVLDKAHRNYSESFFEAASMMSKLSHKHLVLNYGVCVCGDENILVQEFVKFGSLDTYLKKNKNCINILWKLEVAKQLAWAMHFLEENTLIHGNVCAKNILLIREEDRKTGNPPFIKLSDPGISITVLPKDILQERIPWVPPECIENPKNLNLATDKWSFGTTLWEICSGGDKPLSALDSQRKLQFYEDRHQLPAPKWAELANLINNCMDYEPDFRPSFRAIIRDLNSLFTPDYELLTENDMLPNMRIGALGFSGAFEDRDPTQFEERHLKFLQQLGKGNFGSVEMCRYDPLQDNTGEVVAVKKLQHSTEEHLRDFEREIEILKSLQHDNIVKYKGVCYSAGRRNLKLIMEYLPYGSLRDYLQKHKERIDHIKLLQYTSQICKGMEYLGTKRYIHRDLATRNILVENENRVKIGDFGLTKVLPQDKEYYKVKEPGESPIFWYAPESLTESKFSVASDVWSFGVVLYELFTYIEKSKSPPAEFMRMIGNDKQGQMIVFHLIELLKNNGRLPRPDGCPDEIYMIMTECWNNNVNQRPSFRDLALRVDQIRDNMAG

[16] = target: Epidermal growth factor receptor (Homo sapiens) (UniProt P00533); experiment: Inhibition of HER-1 at 10 uM
[17] = test system: Serine/threonine-protein kinase B-raf (Homo sapiens), P15056 [V600E]; experiment: Inhibition of B-Raf V599E mutant at 10 uM
[18] = target: Receptor-type tyrosine-protein kinase FLT3 (Homo sapiens) (UniProt P36888); experiment: Inhibition of Flt-3 at 10 uM
[19] = target: Cyclin-dependent kinase 2 (Homo sapiens) (UniProt P24941); experiment: Inhibition of CDK2A at 10 uM
Homo sapiens [20] = species on record: Homo sapiens; experiment: Inhibition of FGFR3 […] mutant at 10 uM
[21] = target: Insulin-like growth factor 1 receptor (Homo sapiens) (UniProt P08069); experiment: Inhibition of IGF-1R at 10 uM
Chain of Insulin-like growth factor 1 receptor (Homo sapiens) (P08069 31-736 limits assumed): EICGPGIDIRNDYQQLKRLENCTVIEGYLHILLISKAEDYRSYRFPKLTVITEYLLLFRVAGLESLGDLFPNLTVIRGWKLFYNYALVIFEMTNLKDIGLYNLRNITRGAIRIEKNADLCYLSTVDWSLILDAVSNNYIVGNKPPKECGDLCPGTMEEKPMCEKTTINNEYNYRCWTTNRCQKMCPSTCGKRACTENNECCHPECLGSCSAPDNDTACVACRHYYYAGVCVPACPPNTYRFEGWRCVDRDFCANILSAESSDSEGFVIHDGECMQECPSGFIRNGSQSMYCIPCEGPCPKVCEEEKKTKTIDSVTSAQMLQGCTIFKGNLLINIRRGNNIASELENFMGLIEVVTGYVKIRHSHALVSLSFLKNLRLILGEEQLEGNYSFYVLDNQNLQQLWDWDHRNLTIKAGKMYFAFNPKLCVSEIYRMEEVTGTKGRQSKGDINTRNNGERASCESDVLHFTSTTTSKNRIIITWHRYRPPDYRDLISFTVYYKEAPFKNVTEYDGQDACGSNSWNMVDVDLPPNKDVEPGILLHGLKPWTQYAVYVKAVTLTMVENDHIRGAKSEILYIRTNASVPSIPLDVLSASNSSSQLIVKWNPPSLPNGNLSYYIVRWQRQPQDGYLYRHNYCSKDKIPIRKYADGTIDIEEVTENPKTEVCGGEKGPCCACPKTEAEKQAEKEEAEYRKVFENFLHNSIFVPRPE
Chain of Insulin-like growth factor 1 receptor (Homo sapiens) (P08069 741-1367 limits assumed): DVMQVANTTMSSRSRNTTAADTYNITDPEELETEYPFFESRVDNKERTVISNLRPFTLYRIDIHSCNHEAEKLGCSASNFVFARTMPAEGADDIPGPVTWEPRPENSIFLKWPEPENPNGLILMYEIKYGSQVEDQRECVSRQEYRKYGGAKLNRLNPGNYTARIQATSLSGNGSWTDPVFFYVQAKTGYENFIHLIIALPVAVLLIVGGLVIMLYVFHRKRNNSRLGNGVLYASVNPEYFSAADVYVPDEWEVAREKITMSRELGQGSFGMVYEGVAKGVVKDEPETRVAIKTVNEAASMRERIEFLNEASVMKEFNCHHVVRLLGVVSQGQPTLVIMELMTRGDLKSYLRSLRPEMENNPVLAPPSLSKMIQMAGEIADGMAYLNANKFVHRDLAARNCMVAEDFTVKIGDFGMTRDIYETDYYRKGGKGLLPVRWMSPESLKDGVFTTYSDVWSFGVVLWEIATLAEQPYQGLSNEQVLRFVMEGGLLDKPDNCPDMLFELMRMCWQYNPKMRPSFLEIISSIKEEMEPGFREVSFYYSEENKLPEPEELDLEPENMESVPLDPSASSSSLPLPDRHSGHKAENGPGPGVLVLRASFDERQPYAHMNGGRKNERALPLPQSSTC

[22] = target: Focal adhesion kinase 1 (Homo sapiens) (UniProt Q05397); experiment: Inhibition of FAK at 10 uM
[23] = target: T1, Vascular endothelial growth factor receptor 2 (Homo sapiens, UniProt P35968); experiment: Inhibition of VEGFR2 expressed in porcine aortic endothelial cells; assay type: cell-based, Endothelial cell
T1 sequence (P35968 whole entry): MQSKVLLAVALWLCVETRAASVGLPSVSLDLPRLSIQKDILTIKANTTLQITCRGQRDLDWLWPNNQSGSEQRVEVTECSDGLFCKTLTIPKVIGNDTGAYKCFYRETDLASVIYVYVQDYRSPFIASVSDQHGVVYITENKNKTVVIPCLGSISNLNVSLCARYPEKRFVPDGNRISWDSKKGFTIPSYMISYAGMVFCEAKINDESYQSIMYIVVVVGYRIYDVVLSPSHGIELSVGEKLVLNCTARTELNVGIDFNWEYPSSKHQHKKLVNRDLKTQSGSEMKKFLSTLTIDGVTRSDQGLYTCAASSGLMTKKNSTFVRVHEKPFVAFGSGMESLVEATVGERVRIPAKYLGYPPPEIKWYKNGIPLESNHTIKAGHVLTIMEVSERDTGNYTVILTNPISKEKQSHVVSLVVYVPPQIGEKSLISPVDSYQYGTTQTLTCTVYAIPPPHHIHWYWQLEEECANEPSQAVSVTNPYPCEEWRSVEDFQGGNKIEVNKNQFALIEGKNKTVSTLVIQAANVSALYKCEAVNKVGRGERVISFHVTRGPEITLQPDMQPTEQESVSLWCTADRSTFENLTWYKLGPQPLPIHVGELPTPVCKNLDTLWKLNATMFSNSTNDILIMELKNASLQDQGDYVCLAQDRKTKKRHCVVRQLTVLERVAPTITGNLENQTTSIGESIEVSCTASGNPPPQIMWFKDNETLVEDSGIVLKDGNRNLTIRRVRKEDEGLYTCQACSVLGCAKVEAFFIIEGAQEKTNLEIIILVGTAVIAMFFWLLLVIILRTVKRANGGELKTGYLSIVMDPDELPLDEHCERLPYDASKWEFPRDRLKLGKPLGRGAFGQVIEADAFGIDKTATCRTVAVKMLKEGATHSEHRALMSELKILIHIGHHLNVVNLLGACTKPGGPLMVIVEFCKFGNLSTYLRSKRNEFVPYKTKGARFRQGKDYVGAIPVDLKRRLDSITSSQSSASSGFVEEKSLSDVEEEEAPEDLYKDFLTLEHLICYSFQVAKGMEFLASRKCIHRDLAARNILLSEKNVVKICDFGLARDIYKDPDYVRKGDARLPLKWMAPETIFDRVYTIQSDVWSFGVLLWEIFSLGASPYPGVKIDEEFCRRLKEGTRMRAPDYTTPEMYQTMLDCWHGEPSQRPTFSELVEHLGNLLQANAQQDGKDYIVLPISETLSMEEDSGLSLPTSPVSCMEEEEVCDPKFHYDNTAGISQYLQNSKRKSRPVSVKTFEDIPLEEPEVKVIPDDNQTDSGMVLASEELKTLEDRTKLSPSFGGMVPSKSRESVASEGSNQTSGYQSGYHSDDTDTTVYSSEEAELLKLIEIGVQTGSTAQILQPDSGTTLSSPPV

[24] = target: Ephrin type-B receptor 4 (Homo sapiens) (UniProt P54760); experiment: Inhibition of EphB4 at 10 uM
[25] = target: Angiopoietin-1 receptor (Homo sapiens) (UniProt Q02763); experiment: Inhibition of Tek at 10 uM
[26] = target: Proto-oncogene tyrosine-protein kinase Src (Homo sapiens) (UniProt P12931); experiment: Inhibition of Src at 10 uM
[27] = target: Hepatocyte growth factor receptor (Homo sapiens) (UniProt P08581); experiment: Inhibition of Met at 10 uM
[28] = target: Proto-oncogene tyrosine-protein kinase receptor Ret (Homo sapiens) (UniProt P07949); experiment: Inhibition of Ret at 10 uM
[29] = target: 3-phosphoinositide-dependent protein kinase 1 (Homo sapiens) (UniProt O15530); experiment: Inhibition of PDK1 at 10 uM
Chain of 3-phosphoinositide-dependent protein kinase 1 (Homo sapiens) (O15530 whole entry, looked up): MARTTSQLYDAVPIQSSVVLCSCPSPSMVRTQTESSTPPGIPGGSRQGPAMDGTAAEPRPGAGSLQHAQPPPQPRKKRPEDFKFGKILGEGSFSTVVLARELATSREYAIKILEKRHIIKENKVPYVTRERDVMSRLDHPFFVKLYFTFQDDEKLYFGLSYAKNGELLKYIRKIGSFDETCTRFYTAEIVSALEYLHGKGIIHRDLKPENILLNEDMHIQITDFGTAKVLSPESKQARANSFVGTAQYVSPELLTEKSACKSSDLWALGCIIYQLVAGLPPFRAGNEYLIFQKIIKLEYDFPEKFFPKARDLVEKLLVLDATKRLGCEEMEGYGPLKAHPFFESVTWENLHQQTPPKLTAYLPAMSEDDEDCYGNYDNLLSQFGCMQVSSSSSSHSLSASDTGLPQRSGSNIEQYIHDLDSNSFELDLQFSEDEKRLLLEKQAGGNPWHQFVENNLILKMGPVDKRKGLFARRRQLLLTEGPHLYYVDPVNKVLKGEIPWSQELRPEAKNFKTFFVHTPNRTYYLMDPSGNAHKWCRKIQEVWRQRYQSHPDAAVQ

[30] = target: T1, Vascular endothelial growth factor receptor 2; experiment: Inhibition of VEGFR-2 at 10 uM
[31] = target: Tyrosine-protein kinase receptor UFO (Homo sapiens) (UniProt P30530); experiment: Inhibition of Axl at 10 uM

Compound: Cc1nc(Nc2ncc(C(=O)Nc3c(C)cccc3Cl)s2)cc(N2CCN(CCO)CC2)n1
- inhibition (HUVEC [1]): Active
- inhibition (HUVEC [2]): inactive
- inhibition (HUVEC [3]): Active

- Ki [4]: 9.75 µM
- inhibition [5]: inactive
Compound: C(=C/n1ncc2c(NCCc3ccccc3)ncnc21)/c1ccccc1

- inhibition [5]: inactive
Compound: ClC(Cn1ncc2c(NCCc3ccccc3)nc(SCCN3CCOCC3)nc21)c1ccccc1 (stereo unspecified)

Compound: Cc1cn(-c2cc(NC(=O)c3ccc(C)c(Nc4nccc(-c5cccnc5)n4)c3)cc(C(F)(F)F)c2)cn1
- inhibition (HUVEC [6]): inactive
- inhibition (HUVEC [2]): inactive
- inhibition (HUVEC [3]): Active
- inhibition (HUVEC [7]): Active

- permeability [9]: 47.7%
- Stability (Liver microsomes): 92.5%
- Papp [11]: 3 ×10⁻⁶ cm/s
Compound: Clc1cccc(Nc2nc(SCCN3CCOCC3)nc3c2cnn3CC(Cl)c2ccccc2)c1 (stereo unspecified)
- Activity (Danio rerio): Toxic
- Activity (HUVEC [8]): Non-toxic
- inhibition (HUVEC [10]): Active

Compound: CSc1nc(NCCc2ccccc2)c2cnn(CC(Cl)c3ccccc3)c2n1 (stereo unspecified)
- Activity (HUVEC [12]): Toxic

- inhibition (Homo sapiens [13]): 17%
- inhibition (Homo sapiens [14]): 0%
- inhibition [15]: 6%
- inhibition [16]: 56%
- inhibition [17]: 42%
- inhibition [18]: 13%
- inhibition [19]: 8%
- permeability [9]: 6%
- inhibition (Homo sapiens [20]): 0%
- Stability (Liver microsomes): 82%
- inhibition [21]: 0%
- inhibition [22]: 0%
- IC50 [23]: 1 µM
- inhibition [24]: 25%
- inhibition [25]: 6%
- inhibition [26]: 89%
- inhibition [27]: 10%
- inhibition [28]: 5%
- inhibition [29]: 0%
- inhibition [30]: 29%
- inhibition [31]: 8%
Compound: ClC(Cn1ncc2c(NCc3ccccc3)ncnc21)c1ccccc1 (stereo unspecified)
- Activity (Danio rerio): Toxic
- Activity (HUVEC [8]): Non-toxic
- inhibition (HUVEC [10]): Active
